# Source: ChEMBL document CHEMBL5505961, “RIPK1 inhibitors: A key to unlocking the potential of necroptosis in drug development” (Eur J Med Chem, 2024)
# pEC50, pIC50, pKd: −log10 of the molar value.
# Legend:
# Jurkat [1] = experiment: cells; conditions: Homo sapiens, 48 h
# Jurkat [2] = experiment: cells; conditions: Homo sapiens, 24 h
# [3] = biological target: T1, Receptor-interacting serine/threonine-protein kinase 1 (Homo sapiens, UniProt Q13546)
# T1 sequence (Q13546 whole entry): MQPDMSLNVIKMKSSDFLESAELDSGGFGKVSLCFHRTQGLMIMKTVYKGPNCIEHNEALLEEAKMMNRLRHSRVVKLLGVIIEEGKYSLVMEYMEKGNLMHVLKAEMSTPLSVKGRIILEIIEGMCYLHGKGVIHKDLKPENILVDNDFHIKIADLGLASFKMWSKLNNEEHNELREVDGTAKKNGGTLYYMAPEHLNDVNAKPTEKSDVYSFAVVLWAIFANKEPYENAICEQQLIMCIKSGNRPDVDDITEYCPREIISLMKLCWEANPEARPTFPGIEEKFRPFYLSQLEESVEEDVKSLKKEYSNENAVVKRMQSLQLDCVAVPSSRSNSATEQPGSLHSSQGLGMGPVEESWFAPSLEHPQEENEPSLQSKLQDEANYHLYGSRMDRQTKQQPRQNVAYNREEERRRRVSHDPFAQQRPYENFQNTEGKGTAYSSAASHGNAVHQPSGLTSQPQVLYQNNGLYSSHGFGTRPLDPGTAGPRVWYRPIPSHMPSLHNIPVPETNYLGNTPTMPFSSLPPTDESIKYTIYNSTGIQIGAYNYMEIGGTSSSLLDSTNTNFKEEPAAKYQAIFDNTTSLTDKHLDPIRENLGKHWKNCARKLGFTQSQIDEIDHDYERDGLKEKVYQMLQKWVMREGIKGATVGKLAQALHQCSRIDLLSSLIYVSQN
# [4] = biological target: T2, Eukaryotic translation initiation factor 2-alpha kinase 3 (Homo sapiens, UniProt Q9NZJ5)
# T2 sequence (Q9NZJ5 whole entry): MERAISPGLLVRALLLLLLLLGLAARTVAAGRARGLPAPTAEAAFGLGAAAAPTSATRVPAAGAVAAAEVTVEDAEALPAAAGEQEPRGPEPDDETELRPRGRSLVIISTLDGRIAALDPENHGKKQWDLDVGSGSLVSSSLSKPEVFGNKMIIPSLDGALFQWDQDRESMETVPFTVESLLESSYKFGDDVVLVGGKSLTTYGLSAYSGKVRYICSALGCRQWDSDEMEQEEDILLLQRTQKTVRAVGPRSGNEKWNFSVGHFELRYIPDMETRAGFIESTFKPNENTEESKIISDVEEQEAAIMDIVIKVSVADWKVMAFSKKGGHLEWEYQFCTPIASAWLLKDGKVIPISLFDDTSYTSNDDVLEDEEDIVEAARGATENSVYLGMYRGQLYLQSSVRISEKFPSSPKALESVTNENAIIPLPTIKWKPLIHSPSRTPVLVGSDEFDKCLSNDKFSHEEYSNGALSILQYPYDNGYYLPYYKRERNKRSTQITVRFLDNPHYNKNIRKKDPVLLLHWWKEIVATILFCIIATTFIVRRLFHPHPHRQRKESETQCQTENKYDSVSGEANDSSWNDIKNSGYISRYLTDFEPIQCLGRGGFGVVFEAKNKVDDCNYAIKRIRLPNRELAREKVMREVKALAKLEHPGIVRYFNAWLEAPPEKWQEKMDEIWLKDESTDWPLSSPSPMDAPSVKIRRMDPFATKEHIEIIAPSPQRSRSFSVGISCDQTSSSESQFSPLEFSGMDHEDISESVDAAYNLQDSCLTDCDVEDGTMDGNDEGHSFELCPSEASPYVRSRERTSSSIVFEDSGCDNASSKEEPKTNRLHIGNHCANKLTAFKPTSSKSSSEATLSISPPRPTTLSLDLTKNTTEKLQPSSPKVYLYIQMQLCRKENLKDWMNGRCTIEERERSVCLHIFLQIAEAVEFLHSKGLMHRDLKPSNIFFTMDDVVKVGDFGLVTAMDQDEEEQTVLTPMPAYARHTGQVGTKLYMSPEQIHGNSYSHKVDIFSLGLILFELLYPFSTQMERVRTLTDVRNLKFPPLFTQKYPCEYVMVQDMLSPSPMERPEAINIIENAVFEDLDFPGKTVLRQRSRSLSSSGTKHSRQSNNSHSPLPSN
# HT-29 [5] = experiment: cells; conditions: Homo sapiens, HT-29, 48 h
# U-937 [6] = experiment: cells; conditions: Homo sapiens, U-937, 48 h
# MEF = experiment: cells; conditions: Mus musculus, 48 h
# in vitro [7] = conditions: mouse, L929 cells
# clinical = conditions: human
# [8] = biological target: T1, Receptor-interacting serine/threonine-protein kinase 1; remark: listed apart in the source
# cells = conditions: Homo sapiens, HT-29, 1 h
# [9] = biological target: T1, Receptor-interacting serine/threonine-protein kinase 1; experiment: biochemical
# [10] = biological target: T1, Receptor-interacting serine/threonine-protein kinase 1; remark: listed apart in the source
# [11] = biological target: T1, Receptor-interacting serine/threonine-protein kinase 1; remark: listed apart in the source
# HT-29 [12] = experiment: cells; conditions: Homo sapiens, HT-29, 24 h
# L929 = experiment: cells; conditions: Mus musculus, L929, 24 h
# in vitro [13] = conditions: mouse, liver microsomes
# Aurora kinase A = biological target: T3, Aurora kinase A (Homo sapiens, UniProt O14965)
# T3 sequence (O14965 whole entry): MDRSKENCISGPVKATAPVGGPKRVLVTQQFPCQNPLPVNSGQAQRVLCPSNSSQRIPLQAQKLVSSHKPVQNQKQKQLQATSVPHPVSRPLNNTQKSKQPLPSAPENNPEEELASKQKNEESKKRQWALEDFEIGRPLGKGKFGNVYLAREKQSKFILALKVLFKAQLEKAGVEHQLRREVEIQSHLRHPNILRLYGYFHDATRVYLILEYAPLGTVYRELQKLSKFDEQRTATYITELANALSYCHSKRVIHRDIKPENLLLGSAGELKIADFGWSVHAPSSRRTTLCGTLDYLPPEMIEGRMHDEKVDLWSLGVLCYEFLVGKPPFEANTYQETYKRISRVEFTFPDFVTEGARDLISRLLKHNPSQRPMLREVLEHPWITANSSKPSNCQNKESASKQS
# HT-29 [14] = experiment: cells; conditions: Homo sapiens, HT-29, 24 h; remark: listed apart in the source
# [15] = biological target: T1, Receptor-interacting serine/threonine-protein kinase 1; remark: listed apart in the source
# [16] = biological target: T2, Eukaryotic translation initiation factor 2-alpha kinase 3; remark: listed apart in the source
# [17] = biological target: T4, Receptor-interacting serine/threonine-protein kinase 3 (Homo sapiens, UniProt Q9Y572)
# Jurkat [18] = experiment: cells; conditions: Homo sapiens
# [19] = biological target: T1, Receptor-interacting serine/threonine-protein kinase 1; remark: listed apart in the source
# [20] = biological target: Receptor-interacting serine/threonine-protein kinase 2 (Homo sapiens, UniProt O43353)
# HT-29 [21] = experiment: cells; conditions: Homo sapiens
# TOV21G = experiment: cells; conditions: Homo sapiens
# U-937 [22] = experiment: cells; conditions: Homo sapiens
# HT-29 [23] = experiment: cells; conditions: Homo sapiens; remark: listed apart in the source
# Jurkat [24] = experiment: Antiproliferative activity against human Jurkat cells assessed as reduction in cell viability by MTT assay; assay type: functional, cell-based
# [25] = biological target: Indoleamine 2,3-dioxygenase 1 (Homo sapiens, UniProt P14902); experiment: Inhibition of IDO (unknown origin)
# HT-29 [26] = experiment: cells; conditions: Homo sapiens, HT-29, 1 h
# [27] = biological target: T1, Receptor-interacting serine/threonine-protein kinase 1; remark: listed apart in the source
# [28] = biological target: T4, Receptor-interacting serine/threonine-protein kinase 3; remark: listed apart in the source
# [29] = biological target: T5, Regulator of chromosome condensation (Homo sapiens, UniProt P18754)
# T5 sequence (P18754 whole entry): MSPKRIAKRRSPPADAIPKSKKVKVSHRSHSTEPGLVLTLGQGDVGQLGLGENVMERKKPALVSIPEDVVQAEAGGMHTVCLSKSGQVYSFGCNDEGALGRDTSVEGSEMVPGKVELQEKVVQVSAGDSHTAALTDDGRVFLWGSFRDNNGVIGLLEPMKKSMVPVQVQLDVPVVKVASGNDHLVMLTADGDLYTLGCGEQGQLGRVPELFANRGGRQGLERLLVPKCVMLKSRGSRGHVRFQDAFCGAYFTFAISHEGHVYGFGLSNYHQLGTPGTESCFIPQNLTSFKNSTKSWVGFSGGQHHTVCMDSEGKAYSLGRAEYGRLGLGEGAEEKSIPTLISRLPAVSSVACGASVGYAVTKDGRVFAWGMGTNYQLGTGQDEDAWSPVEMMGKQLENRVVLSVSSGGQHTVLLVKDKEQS
# T4 sequence (Q9Y572 whole entry): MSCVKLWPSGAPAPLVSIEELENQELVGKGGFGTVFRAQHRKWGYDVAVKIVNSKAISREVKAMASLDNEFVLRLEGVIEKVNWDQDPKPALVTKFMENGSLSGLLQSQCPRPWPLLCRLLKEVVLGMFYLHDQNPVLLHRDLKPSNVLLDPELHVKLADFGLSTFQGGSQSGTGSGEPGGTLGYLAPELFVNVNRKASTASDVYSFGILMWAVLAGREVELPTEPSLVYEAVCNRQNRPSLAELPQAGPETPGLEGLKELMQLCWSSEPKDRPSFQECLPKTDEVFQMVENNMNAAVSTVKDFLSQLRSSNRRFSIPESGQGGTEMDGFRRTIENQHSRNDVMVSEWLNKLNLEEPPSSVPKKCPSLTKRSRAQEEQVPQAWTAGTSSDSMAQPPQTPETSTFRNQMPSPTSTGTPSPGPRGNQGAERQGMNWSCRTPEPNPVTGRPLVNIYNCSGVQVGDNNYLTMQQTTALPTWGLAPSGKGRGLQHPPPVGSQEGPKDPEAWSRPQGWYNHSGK
# Indoleamine 2,3-dioxygenase 1, sequence (P14902 whole entry): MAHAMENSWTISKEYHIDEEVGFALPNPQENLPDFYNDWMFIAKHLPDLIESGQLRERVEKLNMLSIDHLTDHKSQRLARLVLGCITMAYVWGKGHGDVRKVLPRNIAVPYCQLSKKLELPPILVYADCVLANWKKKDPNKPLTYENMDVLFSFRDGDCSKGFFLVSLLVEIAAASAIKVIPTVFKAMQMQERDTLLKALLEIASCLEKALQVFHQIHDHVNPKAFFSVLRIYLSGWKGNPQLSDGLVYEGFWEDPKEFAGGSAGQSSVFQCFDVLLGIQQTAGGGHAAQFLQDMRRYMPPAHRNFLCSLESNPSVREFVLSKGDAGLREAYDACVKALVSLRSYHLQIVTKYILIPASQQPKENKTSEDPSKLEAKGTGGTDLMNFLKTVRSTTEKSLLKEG
# Receptor-interacting serine/threonine-protein kinase 2, sequence (O43353 whole entry): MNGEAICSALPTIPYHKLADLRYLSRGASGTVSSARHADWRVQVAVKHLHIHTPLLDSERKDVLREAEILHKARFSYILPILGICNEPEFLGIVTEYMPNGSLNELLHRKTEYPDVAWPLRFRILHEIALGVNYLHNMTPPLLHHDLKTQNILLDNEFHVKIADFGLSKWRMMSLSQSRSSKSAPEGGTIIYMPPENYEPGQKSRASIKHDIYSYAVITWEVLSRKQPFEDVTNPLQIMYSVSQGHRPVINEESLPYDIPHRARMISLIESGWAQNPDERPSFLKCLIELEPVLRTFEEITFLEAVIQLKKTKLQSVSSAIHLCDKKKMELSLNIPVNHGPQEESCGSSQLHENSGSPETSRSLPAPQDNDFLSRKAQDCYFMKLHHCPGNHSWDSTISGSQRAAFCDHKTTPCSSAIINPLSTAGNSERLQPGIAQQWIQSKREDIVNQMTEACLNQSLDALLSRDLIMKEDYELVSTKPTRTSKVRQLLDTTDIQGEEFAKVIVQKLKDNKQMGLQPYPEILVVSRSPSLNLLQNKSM
smiles,measurement,setting,value
Cc1ccc(C2CC(=O)NC(SCC(=O)Nc3nccs3)=C2C#N)cc1 (stereo not drawn),pIC50,Jurkat [1],6.13
CN1C(=O)NC(Cc2c[nH]c3ccccc23)C1=O (stereo not drawn),pIC50,Jurkat [2],6.68
Cc1cccc(CC(=O)N2CCc3cc(-c4cn(C)c5ncnc(N)c45)ccc32)n1,pIC50,[3],7.16
same,pIC50,[4],8.01
Cn1cc(-c2ccc3c(c2)CCN3C(=O)Cc2cccc(C(F)(F)F)n2)c2c(N)ncnc21,pIC50,[3],7.74
same,pIC50,[4],8.42
CC(=O)Nc1nc2ccc(-c3cnc(Cl)c(NC(=O)Cc4ccccc4)c3)cc2s1,pIC50,[3],7.74
same,pEC50,HT-29 [5],5.92
same,pEC50,U-937 [6],5.88
same,pEC50,MEF,6.02
same,EC50 at 48 h,in vitro [7],760 nM
CN1C(=O)N[C@@H](Cc2c[nH]c3c(Cl)cccc23)C1=O,half-life,clinical,1 h
CN1C(=O)C(Cc2c[nH]c3c(Cl)cccc23)NC1=S (stereo not drawn),pIC50,Jurkat [2],6.74
Cc1cc(Nc2cc(N3CCN(C)CC3)nc(Nc3ccc(NC(=O)C4CC4)cc3)n2)n[nH]1,pIC50,[8],6.77
CCCCNc1nc2ccc([N+](=O)[O-])cc2[nH]1,pEC50,cells,5.77
O=C(c1ccc(-c2cc3cccnc3[nH]2)cc1)N1CCOCC1,pIC50,[9],4.06
O=C(Nc1cn2cc(-c3cnc4c(c3)N(C(=O)OC3CCOCC3)CC4)ccc2n1)C1CC1,pKd,[10],8.06
O=C(NC1CCOCC1)c1nsc2ncc(-c3ccc4nc(NC(=O)C5CC5)sc4c3)cc12,pIC50,[11],8.24
same,pKd,[10],7.89
same,pEC50,HT-29 [12],8.30
same,pEC50,L929,8.72
same,half-life,in vitro [13],> 1.5 h
Cc1cc(Nc2cc(N3CCNCC3)nc(Nc3ccc(NC(=O)C4CC4)cc3)n2)n[nH]1,pIC50,Aurora kinase A,6.37
same,pIC50,[8],6.80
O=[N+]([O-])c1ccn(Cc2ccc(Cl)cc2Cl)n1,pEC50,HT-29 [14],5.98
Cc1nnsc1C(=O)N[C@H](C)c1c(F)cccc1Cl,pEC50,Jurkat [2],6.40
same,half-life,clinical,0.542 h
CC(=O)NC1=NC2C=CC(c3cnc4ccn(C(=O)OC5CCCCC5)c4c3)=CC2S1 (stereo not drawn),pEC50,HT-29 [12],7.24
same,pEC50,L929,7.59
Cn1cc(-c2ccc3c(c2)CCN3C(=O)Cc2ccc(C(F)(F)F)cn2)c2c(N)ncnc21,pIC50,[15],8.54
same,pIC50,[16],< 5.30
CN1C(=O)[C@@H](Cc2c[nH]c3c(Cl)c(F)ccc23)N(C=O)C1=O,pIC50,[17],6.44
same,pIC50,Jurkat [18],6.73
O=C(NCCc1ccccc1Cl)c1cn(-c2ccccc2)nn1,pIC50,[11],6.60
C[C@@H](Oc1cc(-c2cnn(C3CCNCC3)c2)cnc1N)c1c(Cl)ccc(F)c1Cl [CRIZOTINIB],pIC50,Jurkat [18],5.62
COc1cc(CCc2cc(NC(=O)c3ccc(N4C[C@@H](C)N[C@@H](C)C4)cc3)n[nH]2)cc(OC)c1 [FEXAGRATINIB],pIC50,[19],7.92
same,pIC50,[20],6.59
same,pIC50,[17],5.00
same,pEC50,HT-29 [21],7.72
same,pEC50,TOV21G,7.28
same,pEC50,U-937 [22],7.51
same,pEC50,HT-29 [23],7.72
Cc1ccc(F)c(NC(=O)Nc2ccc(-c3cccc4[nH]nc(N)c34)cc2)c1 [LINIFANIB],pIC50,[11],7.02
CN1C(=O)C(Cc2c[nH]c3ccccc23)NC1=S (stereo not drawn) [NECROSTATIN],pEC50,Jurkat [24],6.27
same,pIC50,[25],4.41
Cc1ccc(Nc2nccc(N(C)c3ccc4c(C)n(C)nc4c3)n2)cc1S(N)(=O)=O [PAZOPANIB],pEC50,Jurkat [18],6.60
COc1cc(/C=C/C(=O)N2CCC=CC2=O)cc(OC)c1OC [PIPLARTINE],pEC50,HT-29 [26],6.27
same,pEC50,cells,5.19
Cc1ccc(C(=O)Nc2ccc(CN3CCN(C)CC3)c(C(F)(F)F)c2)cc1C#Cc1cnc2cccnn12 [PONATINIB],pEC50,Jurkat [18],7.05
same,pEC50,HT-29 [23],7.30
CNC(=O)c1cc(Oc2ccc(NC(=O)Nc3cc(C(C)(C)C)nn3-c3ccc4ncccc4c3)c(F)c2)ccn1 [REBASTINIB],pIC50,[27],8.19
same,pIC50,[28],7.73
same,pEC50,[29],7.73
